US11529323B2 (priority 2017, dated 2022)

What was measured:
Assay type in all cases: in vivo, mouse
[1] = tested on: C-26 colon adenocarcinoma cachexia model; experiment: Initial AR-42/GTx-024 combination study (Study 1), C-26 model; conditions: for effect on gastrocnemius and quadriceps mass: monotherapy (GTx-024 15 mg/kg; AR-42 10 mg/kg)
Method: (§1) These studies were performed as previously described (Tseng Y C, et al. J Natl Cancer Inst. 2015 107(12):djv274) with modifications. Tumors were established in the right flank by subcutaneous injection of C-26 cells (0.5×10^6 cells in 0.1 mL). […] TFM-4AS-1 (a potent experimental SARM), dihydrotestosterone (DHT) and vehicles were administered by subcutaneous injection.
Male CD2F1 mice were stratified by body weight and then randomly assigned into 6 groups of 6 animals each. Historically, 6 animals per group provided sufficient power to detect treatment-mediated differences in tumor-bearing treated animals compared to controls. Tumors were established in four of the groups, while the fifth and sixth groups served as tumor-free controls. Six days later, animals with palpable tumors were treated twice daily for 13 days. […] Body weight, tumor volume, and feed consumption were monitored every other day. Upon sacrifice on day 18, sera were collected and hind limb skeletal muscles, heart, spleen and epididymal adipose tissues were harvested, weighed, flash frozen, and stored for subsequent analyses.
Male CD2F1 mice (6-7 weeks of age; Harlan Laboratories, Indianapolis, Ind.) were group-housed under conditions of constant photoperiod (12-hour light/12-hour dark), temperature and humidity with ad libitum access to water and standard pelleted chow. […] In experiments in which food consumption was determined, the food in each cage was weighed daily and the daily decrease in food weight was divided by the number of mice in the cage. Tumor volumes were calculated from caliper measurements using a standard formula (length×width^2×π/6). Mice were euthanized by CO2 inhalation.

androgen receptor (AR) = experiment: Western blot of androgen receptor in gastrocnemius muscle, Study 1; conditions: irrespective of tumor burden
Method: FIGS. 3A-B show gene expression of multiple cachexia-associated markers in gastrocnemius muscles of individual animals from Study 1 (n=5-6 per group). Expression was determined by qRT-PCR (Geometric Mean±Geometric STD). FIG. 3A contains bar graphs showing genes associated with muscle atrophy. FIG. 3B is a bar graph showing androgen receptor (AR) mRNA expression. […] Statistics all panels: *p<0.05, ***p<0.001, ****p<0.0001 versus tumor-bearing vehicle-treated controls, Dunnett's multiple comparison test. CEBPO, n=4, insufficient sample to analyze all tumor-bearing GTx-024-treated animals.
Western blots from all studies were performed on gastrocnemius muscle from representative animals lysed by Nonidet P-40 isotonic lysis buffer [50 mM Tris-HCl, pH 7.5, 120 mM NaCl, 1% (v/v) Nonidet P-40, 1 mM EDTA, 50 mM NaF, 40 mM glycerophosphate, and […] each of protease inhibitors (aprotinin, pepstatin, and leupeptin)]. Equivalent amounts of protein from each sample, as determined by Bradford assay (Bio-Rad), was resolved by SDS-PAGE and then transferred (semi-dry) onto immobilon-nitrocellulose membranes (Millipore, Billerica, Mass.). Membranes were washed twice with TBST [Tris-buffered saline (TBS) containing 0.1% Tween 20], blocked with 5% nonfat milk in TBST for 1 hour, and then washed an additional 3 times. […]

serum cytokines = experiment: Serum cytokine panel, multiplex analysis, Study 2, C-26 tumor-bearing mice; conditions: GTx-024 15 mg/kg, AR-42 10 mg/kg p.o. qd, Day 17 sacrifice, mean ± SD
Method: as §1
This confirmatory study was performed exactly as Study 1 with expanded animal numbers. Tumor-free control groups were maintained at 6 animals each, whereas 10 animals were included in each of the tumor-bearing groups. […] Grip strength was measured on study days 0 (baseline) and 16. Due to rapid model progression, this study was terminated after only 12 days of treatment.
Serum cytokine panel analyses were performed by a commercial vendor (Eve Technologies, Calgary, Canada) as previously described. Serum interleukin-6 (IL-6) was measured using a commercial ELISA kit (R&D Systems, Minneapolis, Minn., USA) according to the manufacturer's instructions.

SMILES | effect on gastrocnemius and quadriceps mass ([1]; Study 1, C-26 tumor-bearing) | AR protein expression in gastrocnemius (androgen receptor (AR)) | Eotaxin, serum (serum cytokines) | G-CSF, serum (serum cytokines) | GM-CSF, serum (serum cytokines) | IFNg, serum (serum cytokines) | IL12 (p40), serum (serum cytokines) | IL-1a, serum (serum cytokines) | IL-1b, serum (serum cytokines) | IL-2, serum (serum cytokines) | IL-3, serum (serum cytokines) | IL-4, serum (serum cytokines) | IL-5, serum (serum cytokines) | IL-6, serum (serum cytokines) | IL-7, serum (serum cytokines) | IL-9, serum (serum cytokines) | IL-10, serum (serum cytokines) | IL-12 (p70), serum (serum cytokines) | IL-13, serum (serum cytokines) | IL-15, serum (serum cytokines) | also measured
CC(C)[C@H](C(=O)Nc1ccc(C(=O)NO)cc1)c1ccccc1 [AR-42, (S)—N-hydroxy-4-(3-methyl-2-phenylbutanamido)benzamide] | not translated into significant improvements in gastrocnemius and quadriceps mass | did not have a marked impact on AR expression | 735.73 ± 110.62 pg/mL | 2782.18 ± 2191.30 pg/mL | 18.70 ± 3.77 pg/mL | 4.69 ± 1.11 pg/mL | 31.22 ± 24.43 pg/mL | 143.31 ± 157.59 pg/mL | 20.48 ± 6.25 pg/mL | 19.37 ± 6.07 pg/mL | 0.72 ± 0.83 pg/mL | 0.32 ± 0.19 pg/mL | 5.50 ± 4.41 pg/mL | 256.59 ± 183.1 pg/mL | 41.51 ± 99.92 pg/mL | 11.28 ± 7.68 pg/mL | 15.13 ± 11.16 pg/mL | 10.16 ± 6.16 pg/mL | 34.19 ± 8.29 pg/mL | 51.57 ± 19.99 pg/mL | terminal body weight, corrected for tumor weight ([1]; Study 1, Day 18, C-26 tumor-bearing, AR-42 10 mg/kg, GTx-024 15 mg/kg, oral, 13 days): 93.6±7.7 % of baseline; IL-17, serum (serum cytokines): 1.82 ± 0.85 pg/mL; IP-10, serum (serum cytokines): 215.35 ± 52.46 pg/mL; KC, serum (serum cytokines): 363.38 ± 200.65 pg/mL; LIF, serum (serum cytokines): 15.79 ± 5.15 pg/mL; LIX, serum (serum cytokines): 2515.38 ± 3119.67 pg/mL; M-CSF, serum (serum cytokines): 20.21 ± 4.63 pg/mL; MCP-1, serum (serum cytokines): 91.18 ± 40.23 pg/mL; MIG, serum (serum cytokines): 55.17 ± 10.58 pg/mL; MIP-1a, serum (serum cytokines): 63.79 ± 19.14 pg/mL; MIP-1b, serum (serum cytokines): 76.41 ± 12.81 pg/mL; MIP-2, serum (serum cytokines): 146.34 ± 32.60 pg/mL; RANTES, serum (serum cytokines): 19.70 ± 4.31 pg/mL; TNFa, serum (serum cytokines): 12.77 ± 4.55 pg/mL; VEGF, serum (serum cytokines): 1.04 ± 0.24 pg/mL
C[C@](O)(COc1ccc(C#N)cc1)C(=O)Nc1ccc(C#N)c(C(F)(F)F)c1 [GTx-024, (2S)-3-(4-cyanophenoxy)-N-(4-cyano-3-(trifluoromethyl)phenyl)-2-hydroxy-2-methylpropanamide] | did not spare | increased | 876.82 ± 100.53 pg/mL | 2446.63 ± 1625.70 pg/mL | 17.35 ± 4.33 pg/mL | 4.12 ± 2.09 pg/mL | 27.61 ± 27.95 pg/mL | 167.80 ± 156.50 pg/mL | 12.12 ± 5.54 pg/mL | 15.62 ± 3.41 pg/mL | 0.92 ± 0.56 pg/mL | 0.23 ± 0.14 pg/mL | 1.11 ± 0.66 pg/mL | 397.54 ± 341.43 pg/mL | 11.19 ± 8.17 pg/mL | 8.69 ± 9.43 pg/mL | 14.15 ± 18.01 pg/mL | 12.62 ± 7.71 pg/mL | 31.63 ± 8.22 pg/mL | 97.32 ± 39.18 pg/mL | effect on body weight ([1]; Study 1, C-26 tumor-bearing, GTx-024 15 mg/kg monotherapy): did not spare body weight; per animal food consumption ([1]; Study 1, between day 14 and 16, GTx-024 in tumor-free animals, combination in tumor-bearing animals, relative to other groups): small increases in per animal food consumption; body weight in tumor-free controls ([1]; Study 1, tumor-free mice, GTx-024 15 mg/kg): did not cause body weight loss; IL-17, serum (serum cytokines): 1.75 ± 1.28 pg/mL; IP-10, serum (serum cytokines): 154.76 ± 17.98 pg/mL; KC, serum (serum cytokines): 288.89 ± 154.46 pg/mL; LIF, serum (serum cytokines): 45.26 ± 21.57 pg/mL; LIX, serum (serum cytokines): 5234.39 ± 4771.34 pg/mL; M-CSF, serum (serum cytokines): 22.23 ± 9.45 pg/mL; MCP-1, serum (serum cytokines): 88.07 ± 24.41 pg/mL; MIG, serum (serum cytokines): 39.33 ± 12.88 pg/mL; MIP-1a, serum (serum cytokines): 108.03 ± 27.91 pg/mL; MIP-1b, serum (serum cytokines): 81.67 ± 11.63 pg/mL; MIP-2, serum (serum cytokines): 147.63 ± 59.81 pg/mL; RANTES, serum (serum cytokines): 20.67 ± 4.57 pg/mL; TNFa, serum (serum cytokines): 12.71 ± 5.12 pg/mL; VEGF, serum (serum cytokines): 0.87 ± 0.29 pg/mL
